The values that follow come from patent US5482967A, “Condensed heterocyclic compounds, their production and use” (Takeda Chemical Industries, Ltd., priority 1992, dated 1996).

Assay [1] concerns the target T1, acyl-CoA:cholesterol acyl transferase (ACAT) (Rattus norvegicus, UniProt Q7TQM4).
T1 construct: small intestine mucosal microsome fraction of a 6-week-old male Sprague-Dawley rat; from tissue; host or cells: rat small intestine mucosa, microsome fraction
T1 sequence (Q7TQM4 1-524): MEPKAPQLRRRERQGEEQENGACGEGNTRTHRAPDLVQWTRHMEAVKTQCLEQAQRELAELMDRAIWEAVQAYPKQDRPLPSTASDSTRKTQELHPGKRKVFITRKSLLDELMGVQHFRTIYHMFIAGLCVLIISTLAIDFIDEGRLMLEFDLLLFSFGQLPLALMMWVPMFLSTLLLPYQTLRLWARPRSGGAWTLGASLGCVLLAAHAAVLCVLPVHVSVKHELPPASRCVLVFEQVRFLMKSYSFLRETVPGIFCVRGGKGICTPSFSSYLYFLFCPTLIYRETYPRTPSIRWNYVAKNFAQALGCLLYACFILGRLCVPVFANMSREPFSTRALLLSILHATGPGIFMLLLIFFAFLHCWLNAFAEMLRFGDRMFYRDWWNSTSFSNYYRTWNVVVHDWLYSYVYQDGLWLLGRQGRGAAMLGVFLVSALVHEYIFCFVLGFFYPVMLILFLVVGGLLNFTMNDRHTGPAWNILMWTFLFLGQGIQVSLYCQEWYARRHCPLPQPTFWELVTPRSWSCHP
Put plainly: Inhibitory action against acyl-CoA:cholesterol acyl transferase (ACAT), formation of labeled cholesterol ester, small intestine mucosal microsome fraction. The format is biochemical, male Sprague-Dawley rat. The note with it: 10^-6 M; read-out: ACAT Inhibitory Rate (%). The method, then: An ACAT enzyme preparation was prepared from a small intestine mucosal microsome fraction of a 6-week-old male Sprague-Dawley rat, previously fasted for 20 hours, in accordance with the method described by Heider et al. in the Journal of Lipid Research, Vol. 24, page 1127 (1982).
ACAT activity was determined by measuring the amount of labeled cholesterol ester produced from [1-^14 C]-oleoyl-CoA and endogenous cholesterol, in accordance with the method of Helgerud et al. [Journal of Lipid Research, Vol. 22, page 271 (1981)].

The nature of assay [2]: Hypocholesterolemic activity (cholesterol-lowering activity) in hypercholesterolemic mice on high cholesterol-cholic acid diet. The format is in vivo, ICR mice. The note with it: vs control groups; for Reduction % HPL: heparin precipitating lipoproteins; for Reduction % cholesterol: serum. The method, then: Groups of 6 ICR mice (2 subgroups of 3 mice) were made hypercholesterolemic by being fed a high cholesterol-cholic acid diet for 7 days and administered with test compounds orally on the last two days. One-half of the total does was given on day 6 followed by the other half on day 7. After fasting overnight (16 hours after the last dose), the animals were sacrificed and sera were collected together for the each subgroup for measuring the levels of cholesterol and heparin precipitating lipoproteins (HPL). Both cholesterol and HPL levels were measured with autonalyzer by the enzymatic CHOD-PAP method for the former and by the turbidimetric method of Shurr et. al. [in C. E. Dau ed. Atherosclerosis Drug Discovery, Plenum Publishing, New York, pp. 215-229 & 231-249, 1976.] for the latter.

Take `CC(C)c1cccc(C(C)C)c1NC(=O)Cc1oc(=O)c2ccc(Cl)cc2c1-c1ccccc1` [Example 48, N-[2,6-Bis(1-methylethyl)phenyl]-6-chloro-1-oxo-4-phenyl-1H-2-benzopyran-3-acetamide]: the inhibition at 1 µM in assay [1] is 99.2%. Further, in assay [2] (3 mg/kg po), the “Reduction % HPL” value was 26% and the Reduction % cholesterol came out at 27%. Besides, in assay [2] (10 mg/kg po), the “Reduction % HPL” value is 39% and the Reduction % cholesterol is 32%.

As to `COc1ccccc1-c1c(CC(=O)Nc2c(OC)cccc2OC)oc(=O)c2ccccc12` [Example 74, N-(2,6-Dimethoxyphenyl)-4-(2-methoxyphenyl)-1-oxo-1H-2-benzopyran-3-acetamide], the inhibition at 1 µM in assay [1] turned out to be 99.5%. Further, the “Reduction % HPL” value turned out to be 32% in assay [2] (3 mg/kg po) and 37% in assay [2] (10 mg/kg po). For the same compound, the Reduction % cholesterol in assay [2] (3 mg/kg po) is 29%; in assay [2] (10 mg/kg po) it was 33%.

On to `Cc1ccccc1-c1c(CC(=O)Nc2c(C(C)C)cccc2C(C)C)c(=O)oc2ccc(Cl)cc12` [Example 82, N-[2,6-Bis(1-methylethyl)phenyl]-6-chloro-4-(2-methylphenyl)-2-oxo-2H-1-benzopyran-3-acetamide], for which the inhibition at 1 µM in assay [1] is 99.3%. For the same compound, in assay [2] (3 mg/kg po), the “Reduction % HPL” value was determined as 37% and the Reduction % cholesterol stood at 31%. Moreover, in assay [2] (10 mg/kg po), the “Reduction % HPL” value is 50% and the Reduction % cholesterol was determined as 40%.

Regarding `COc1cccc(OC)c1NC(=O)Cc1c(-c2ccccc2C)c2cc(Cl)ccc2oc1=O` [Example 84, 6-Chloro-N-(2,6-dimethoxyphenyl)-4-(2-methylphenyl)-2-oxo-2H-1-benzopyran-3-acetamide], the inhibition at 1 µM in assay [1] is 99.5%. For the same compound, in assay [2] (3 mg/kg po), the “Reduction % HPL” value came to 28% and the Reduction % cholesterol is 15%. Further, in assay [2] (10 mg/kg po), the “Reduction % HPL” value is 47% and the Reduction % cholesterol was determined as 33%.
